These results are taken from publication PMC6429436 (Bioconjugate Chemistry, 2019).

pIC50, pKd: −log10 of the molar value. Several values for one entry are separate records, joined by “and”; a condition that tells them apart may be missing. Equal entries are not always repeated.

As usually defined, the pKd is the negative decadic logarithm of the Kd, by convention in mol/L. One may read the pIC50 as the negative decadic logarithm of the IC50, by convention in mol/L. Higher therefore signals a small IC50. The term IC50 denotes the concentration at which inhibition is half-maximal. High values mean a need for much substance, low ones inhibition by little substance.

One assay has as its target CTB. As to conditions: LeY-CTB binding, secondary binding site; cited from earlier work.
The target in another assay is cholera toxin B-subunit (Vibrio cholerae serotype O1, UniProt P01556). The assay is described as follows: biochemical. The format is binding.
For assay [1], the system named is CT-induced swelling of intestinal organoids. In words: cells. It counts as cell-based, human.

Sequence of cholera toxin B-subunit (P01556 22-124 limits assumed): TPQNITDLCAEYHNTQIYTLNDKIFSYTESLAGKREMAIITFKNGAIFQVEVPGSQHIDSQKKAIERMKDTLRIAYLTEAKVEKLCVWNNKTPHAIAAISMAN

Consider `CC(=O)N[C@@H]1[C@@H](O[C@@H]2O[C@@H](C)[C@@H](O)[C@@H](O)[C@@H]2O)[C@H](O[C@@H]2O[C@H](CO)[C@H](O)[C@H](O)[C@H]2O[C@@H]2O[C@@H](C)[C@@H](O)[C@@H](O)[C@@H]2O)[C@@H](CO)O[C@H]1O` [LeY], for which, on CTB, the pKd is 2.85.
Turning to `O=C[C@H](O)[C@@H](O)[C@@H](O)[C@H](O)CO` [galactose], the rel. pot. (at cholera toxin B-subunit; in assay [1]) was 1 each time. The “rel. pot. per sugar” value (on cholera toxin B-subunit; in assay [1]) was 1 in each case. This molecule gave a pIC50 at cholera toxin B-subunit (IC50 (μg/mL)) of 0.95. The IC50 in assay [1] (Homo sapiens) is 100 mM and 18000 µg/mL.
